Legend:
[1] = test system: Com21 synthetic gut community; assay: community biomass OD578 after 24 h drug treatment relative to untreated (fraction of untreated control); higher = more community growth; details: community: Com21 (Com20 + E. coli ED1a)
Procedure: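 Com21 (Com20 plus E. coli ED1a) was treated with drug for 24 h under anaerobic conditions in mGAM. Community OD578 was then measured and normalised to untreated Com21; mean of 3 biological replicates.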

[2] = test system: Fusobacterium nucleatum subsp. Nucleatum; assay: IC25 growth inhibition; higher = less potent
Method in brief: (§1)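 Monocultures grown overnight in mGAM were added to pre-reduced plates holding twofold drug dilutions, giving a starting OD578 of 0.01 and 1% DMSO (or water). Growth was followed anaerobically by hourly OD578 readings in a plate reader, with at least three biological replicates. The median growth-curve AUC per concentration was forced to be monotonic. IC25 was the lowest concentration with median AUC below 0.75, reported as a tested interval.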

[3] = test system: Bacteroides thetaiotaomicron; assay: IC25 growth inhibition; higher = less potent
Method in brief: as §1

Coprococcus comes = assay: IC25 growth inhibition; higher = less potent
Method in brief: as §1

Collinsella aerofaciens = assay: IC25 growth inhibition; higher = less potent
Method in brief: as §1

Eubacterium rectale = assay: IC25 growth inhibition; higher = less potent
Method in brief: as §1

[4] = test system: Yersinia pseudotuberculosis; assay: IC25 growth inhibition; higher = less potent
Method in brief: as §1

Roseburia intestinalis = assay: IC25 growth inhibition; higher = less potent
Method in brief: as §1

[5] = test system: Yersinia enterocolitica WA-314; assay: IC25 growth inhibition; higher = less potent
Method in brief: as §1

Clostridium ramosum = assay: IC25 growth inhibition; higher = less potent
Method in brief: as §1

Shigella flexneri = assay: IC25 growth inhibition; higher = less potent
Method in brief: as §1

Clostridium bolteae = assay: IC25 growth inhibition; higher = less potent
Method in brief: as §1

Vibrio cholerae = assay: IC25 growth inhibition; higher = less potent
Method in brief: as §1

Bacteroides fragilis NT = assay: IC25 growth inhibition; higher = less potent
Method in brief: as §1

Dorea formicigenerans = assay: IC25 growth inhibition; higher = less potent
Method in brief: as §1

Parabacteroides merdae = assay: IC25 growth inhibition; higher = less potent
Method in brief: as §1

[6] = test system: Streptococcus parasanguinis; assay: IC25 growth inhibition; higher = less potent
Method in brief: as §1

[7] = test system: Salmonella enterica typhimurium; assay: IC25 growth inhibition; higher = less potent
Method in brief: as §1

Clostridium perfringens = assay: IC25 growth inhibition; higher = less potent
Method in brief: as §1

Bacteroides vulgatus = assay: IC25 growth inhibition; higher = less potent
Method in brief: as §1

[8] = test system: Clostridium saccharolyticum; assay: IC25 growth inhibition; higher = less potent
Method in brief: as §1

Ruminococcus gnavus = assay: IC25 growth inhibition; higher = less potent
Method in brief: as §1

Escherichia coli ED1a = assay: IC25 growth inhibition; higher = less potent
Method in brief: as §1

Bacteroides uniformis = assay: IC25 growth inhibition; higher = less potent
Method in brief: as §1

Streptococcus salivarius = assay: IC25 growth inhibition; higher = less potent
Method in brief: as §1

[9] = drug pretreatment concentration 2.5 µM
[10] = drug pretreatment concentration 5 µM
[11] = drug pretreatment concentration 10 µM
[12] = drug pretreatment concentration 20 µM
[13] = drug pretreatment concentration 40 µM
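Throughout, for IC25 growth inhibition: lowest concentration where monotonic median growth AUC falls below 0.75 of drug-free control.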

Compound | community biomass OD578 [1, 9] | community biomass OD578 [1, 10] | community biomass OD578 [1, 11] | community biomass OD578 [1, 12] | community biomass OD578 [1, 13] | IC25 growth inhibition [2] [µM] | IC25 growth inhibition [3] [µM] | IC25 growth inhibition (Coprococcus comes) [µM] | IC25 growth inhibition (Collinsella aerofaciens) [µM] | IC25 growth inhibition (Eubacterium rectale) [µM] | IC25 growth inhibition [4] [µM] | IC25 growth inhibition (Roseburia intestinalis) [µM] | IC25 growth inhibition [5] [µM] | IC25 growth inhibition (Clostridium ramosum) [µM] | IC25 growth inhibition (Shigella flexneri) [µM] | IC25 growth inhibition (Clostridium bolteae) [µM] | IC25 growth inhibition (Vibrio cholerae) [µM] | IC25 growth inhibition (Bacteroides fragilis NT) [µM] | IC25 growth inhibition (Dorea formicigenerans) [µM] | IC25 growth inhibition (Parabacteroides merdae) [µM] | IC25 growth inhibition [6] [µM] | IC25 growth inhibition [7] [µM] | IC25 growth inhibition (Clostridium perfringens) [µM] | IC25 growth inhibition (Bacteroides vulgatus) [µM] | IC25 growth inhibition [8] [µM] | IC25 growth inhibition (Ruminococcus gnavus) [µM] | IC25 growth inhibition (Escherichia coli ED1a) [µM] | IC25 growth inhibition (Bacteroides uniformis) [µM] | IC25 growth inhibition (Streptococcus salivarius) [µM] | community biomass OD578 ([1]; drug pretreatment concentration 80 µM) | community biomass OD578 ([1]; drug pretreatment concentration 160 µM)
Clc1ccccc1C(c1ccccc1)(c1ccccc1)n1ccnc1 [Clotrimazole] | 0.969 | 0.989 | 1.03 | 1 | 0.976 | > 40 | ≤ 80 | ≤ 5 | ≤ 40 | ≤ 10 | > 20 | ≤ 10 | > 80 | ≤ 20 | > 80 | ≤ 80 | > 80 | ≤ 80 | ≤ 10 | ≤ 40 | > 80 | > 80 | > 80 | ≤ 80 | ≤ 40 | ≤ 20 | > 40 | ≤ 80 | > 80 |  | 
CC(=O)Oc1cccc2c1C(=O)c1c(OC(C)=O)cc(C(=O)O)cc1C2=O [Diacerein] |  |  | 0.936 | 0.913 | 0.728 | ≤ 10 | ≤ 2.5 | ≤ 20 | ≤ 2.5 | < 1.25 | ≤ 160 | < 1.25 | > 160 | ≤ 10 | > 160 | ≤ 2.5 | ≤ 40 | ≤ 2.5 | < 1.25 | < 1.25 | ≤ 10 | > 160 | ≤ 20 | ≤ 2.5 | ≤ 2.5 | ≤ 10 | > 160 | ≤ 5 | ≤ 10 | 0.337 | 0.284
O=c1oc2ccccc2c(O)c1Cc1c(O)c2ccccc2oc1=O [Dicumarol] | 0.966 | 0.965 | 0.958 | 0.956 | 0.962 | ≤ 80 | ≤ 80 | > 80 | > 80 | > 80 | > 80 | > 80 | > 80 | ≤ 40 | > 80 | > 80 | ≤ 80 | ≤ 20 | > 80 | ≤ 80 | ≤ 10 | > 80 | ≤ 20 | ≤ 20 | ≤ 40 | ≤ 80 | > 40 | ≤ 20 | ≤ 20 |  | 
C/C=C(/C(=C/C)c1ccc(O)cc1)c1ccc(O)cc1 [Dienestrol] | 0.981 | 1.03 | 0.997 | 0.972 | 0.894 | > 40 | ≤ 20 | ≤ 10 | > 40 | ≤ 20 | > 40 | ≤ 40 | > 40 | ≤ 40 | > 40 | > 40 | ≤ 40 | ≤ 10 | ≤ 10 | ≤ 40 | > 40 | > 40 | ≤ 20 | ≤ 40 | ≤ 40 | ≤ 5 | > 40 | ≤ 40 | ≤ 40 |  | 

Reference: the supplement of paper PMC12350171
